Experimental data reported in US9187467B2, “2-phenyl benzothiazole linked imidazole compounds as potential anticancer agents and process for the preparation thereof” (Council of Scientific and Industrial Research, priority 2012, dated 2015).
Where two headings read alike, the source gives them in different places.

Key:
[1] = test system: IGROV1; experiment: SRB anticancer assay, ovarian; format: cell-based, human; details: Homo sapiens, IGROV-1; IGROV1, 48 h
[2] = test system: BT-549; experiment: SRB anticancer assay, breast; format: cell-based, human; details: Homo sapiens, BT-549, 48 h
[3] = test system: U251; experiment: SRB anticancer assay, CNS; format: cell-based, human; set-up: Log10GI50: unit not given here
[4] = test system: UO-31; experiment: SRB anticancer assay, renal; format: cell-based, human; set-up: Log10GI50: unit not given here
[5] = test system: PC-3; experiment: SRB anticancer assay, prostate; format: cell-based, human; set-up: Log10GI50: unit not given here
[6] = test system: NCI-H226; experiment: SRB anticancer assay, non-small lung; format: cell-based, human; details: Homo sapiens, NCI-H226, 48 h
[7] = test system: MCF-7 (Breast carcinoma) cells; experiment: Cell cycle distribution by flow cytometry (FACS); format: cell-based; details: MCF-7 cells, 2 μM, 24h
In short: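 MCF-7 cells treated with compound at 2 μM for 24h, DMSO (0.25%) as control. Cell cycle distribution read by flow cytometry.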

[8] = test system: HL-60 (TB); experiment: SRB anticancer assay, leukemia; format: cell-based, human; set-up: Log10GI50: unit not given here
[9] = test system: UACC-62; experiment: SRB anticancer assay, melanoma; format: cell-based, human
[10] = test system: T-47D; experiment: SRB anticancer assay, breast; format: cell-based; details: Homo sapiens, T47D, 48 h
[11] = test system: SF-539; experiment: SRB anticancer assay, CNS; format: cell-based, human; set-up: Log10GI50: unit not given here
[12] = test system: LOX IMVI; experiment: SRB anticancer assay, melanoma; format: cell-based, human; set-up: Log10GI50: unit not given here
[13] = test system: K562 (Leukemia) cells; experiment: Cell cycle distribution by flow cytometry; format: cell-based
In short: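 Compound-treated K562 cells analysed for cell-cycle distribution by flow cytometry; values given as % of cells.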

[14] = test system: NCI-H522; experiment: SRB anticancer assay, non-small lung; format: cell-based, human; set-up: Log10GI50: unit not given here
[15] = test system: TK-10; experiment: SRB anticancer assay, renal; format: cell-based, human; details: Homo sapiens, TK-10, 48 h
[16] = test system: ACHN; experiment: SRB anticancer assay, renal; format: cell-based, human; set-up: Log10GI50: unit not given here
[17] = test system: Leukemia cancer cell lines; experiment: SRB anticancer assay, panel result; format: cell-based, human
In short: (§1)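 Each compound is profiled per cell line over five or more concentrations at tenfold spacing. Exposure lasts 48 h without washout, and the sulforhodamine B method quantifies cellular protein as a growth measure.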

[18] = test system: Melanoma cancer cell lines; experiment: SRB anticancer assay, panel result; format: cell-based, human
In short: as §1

[19] = test system: Colon cancer cell lines; experiment: SRB anticancer assay, panel result; format: cell-based, human
In short: as §1

[20] = test system: CNS cancer cell lines; experiment: SRB anticancer assay, panel result; format: cell-based, human
In short: as §1

[21] = test system: Ovarian cancer cell lines; experiment: SRB anticancer assay, panel result; format: cell-based, human
In short: as §1

[22] = test system: Renal cancer cell lines; experiment: SRB anticancer assay, panel result; format: cell-based, human
In short: as §1

[23] = test system: Non-small cell lung cancer cell lines; experiment: SRB anticancer assay, panel result; format: cell-based, human
In short: as §1

[24] = test system: Prostate cancer cell lines; experiment: SRB anticancer assay, panel result; format: cell-based, human
In short: as §1

COc1cc2nc(-c3ccc(-n4cncc4-c4ccc(N)cc4)cc3)sc2c(OC)c1OC [Compound 7h, 4-(1-(4-(5,6,7-Trimethoxybenzo[d]thiazol-2-yl)phenyl)-1H-imidazol-5-yl)benzenamine]
GI50 [1]: 2.63 µM
GI50 [2]: 1.59 µM
GI50 ([3]; Homo sapiens, U-251, U251, 48 h): 3.84 µM
Log10GI50 ([3]; U251, present compounds): −5.42
GI50 ([4]; Homo sapiens, UO-31, 48 h): 1.55 µM
Log10GI50 ([4]; UO-31, present compounds): −5.81
GI50 ([5]; Homo sapiens, PC-3, 48 h): 3.02 µM
Log10GI50 ([5]; PC-3, present compounds): −5.52
GI50 [6]: 4.73 µM
cells in G2/M phase [7]: 23%
Log10GI50 ([8]; HL-60(TB), present compounds): −6.00
GI50 ([8]; Homo sapiens, HL-60, 48 h): 0.989 µM
GI50 ([9]; Homo sapiens, UACC-62, 48 h): 5.45 µM
Log10GI50 ([9]; UACC-62, present compounds): −5.26 log10 M
GI50 [10]: 1.82 µM
GI50 ([11]; Homo sapiens, SF-539, 48 h): 7.14 µM
Log10GI50 ([11]; SF-539, present compounds): −5.15
GI50 ([12]; Homo sapiens, 48 h): 3.65 µM
Log10GI50 ([12]; present compounds): −5.44
cells in G2/M phase [13]: 16%
GI50 ([14]; Homo sapiens, NCI-H522, 48 h): 2.74 µM
Log10GI50 ([14]; NCI-H522, present compounds): −5.56
GI50 [15]: 4.93 µM
GI50 ([16]; Homo sapiens, 48 h): 8.56 µM
Log10GI50 ([16]; present compounds): −5.07
LC50 ([17]; Homo sapiens, Leukemia panel, 50% net cell death, read-out: mean graph midpoint value (MG_MID) of Log10 LC50 (converted)): > 100 µM
GI50 ([17]; Homo sapiens, Leukemia panel, read-out: mean graph midpoint value (MG_MID) of Log10 GI50 (converted)): 1.2 µM
GI50 ([17]; Homo sapiens, six leukemia cancer cell lines, exposure at least 48 h, read-out: GI50, range over the panel): 0.989 to 1.4 µM
mean graph midpoint value (MG_MID) of log10 TGI ([17]; Leukemia panel, total inhibition of net cell growth): >−4.0
LC50 ([18]; Homo sapiens, Melanoma panel, 50% net cell death, read-out: mean graph midpoint value (MG_MID) of Log10 LC50 (converted)): 97.7 µM
GI50 ([18]; Homo sapiens, Melanoma panel, read-out: mean graph midpoint value (MG_MID) of Log10 GI50 (converted)): 4.79 µM
GI50 ([18]; Homo sapiens, nine melanoma cancer cell lines, exposure at least 48 h, read-out: GI50, range over the panel): 0.71 to 6.4 µM
mean graph midpoint value (MG_MID) of log10 TGI ([18]; Melanoma panel, total inhibition of net cell growth): −4.13
mean graph midpoint value (MG_MID) of log10 TGI ([19]; Colon panel, total inhibition of net cell growth): >−4.0
LC50 ([19]; Homo sapiens, Colon panel, 50% net cell death, read-out: mean graph midpoint value (MG_MID) of Log10 LC50 (converted)): > 100 µM
GI50 ([19]; Homo sapiens, Colon panel, read-out: mean graph midpoint value (MG_MID) of Log10 GI50 (converted)): 3.31 µM
GI50 ([19]; Homo sapiens, seven colon cancer cell lines, exposure at least 48 h, read-out: GI50, range over the panel): 2.79 to 3.81 µM
mean graph midpoint value (MG_MID) of log10 TGI ([20]; CNS panel, total inhibition of net cell growth): −4.51
CC50 ([20]; Homo sapiens, CNS panel, 50% net cell death, read-out: mean graph midpoint value (MG_MID) of Log10 LC50 (converted)): 66.1 µM
GI50 ([20]; Homo sapiens, CNS panel, read-out: mean graph midpoint value (MG_MID) of Log10 GI50 (converted)): 5.75 µM
GI50 ([20]; Homo sapiens, six CNS cancer cell lines, exposure at least 48 h, read-out: GI50, range over the panel): 1.53 to 12.3 µM
LC50 ([21]; Homo sapiens, Ovarian panel, 50% net cell death, read-out: mean graph midpoint value (MG_MID) of Log10 LC50 (converted)): 89.1 µM
GI50 ([21]; Homo sapiens, Ovarian panel, read-out: mean graph midpoint value (MG_MID) of Log10 GI50 (converted)): 5.01 µM
GI50 ([21]; Homo sapiens, seven ovarian cancer cell lines, exposure at least 48 h, read-out: GI50, range over the panel): 1.61 to 34.3 µM
mean graph midpoint value (MG_MID) of log10 TGI ([21]; Ovarian panel, total inhibition of net cell growth): −4.56
CC50 ([22]; Homo sapiens, Renal panel, 50% net cell death, read-out: mean graph midpoint value (MG_MID) of Log10 LC50 (converted)): 95.5 µM
GI50 ([22]; Homo sapiens, Renal panel, read-out: mean graph midpoint value (MG_MID) of Log10 GI50 (converted)): 3.89 µM
GI50 ([22]; Homo sapiens, eight renal cancer cell lines, exposure at least 48 h, read-out: GI50, range over the panel): 1.41 to 8.95 µM
mean graph midpoint value (MG_MID) of log10 TGI ([22]; Renal panel, total inhibition of net cell growth): −4.38
LC50 ([23]; Homo sapiens, Non-small cell lung panel, 50% net cell death, read-out: mean graph midpoint value (MG_MID) of Log10 LC50 (converted)): 93.3 µM
GI50 ([23]; Homo sapiens, Non-small cell lung panel, read-out: mean graph midpoint value (MG_MID) of Log10 GI50 (converted)): 2.57 µM
GI50 ([23]; Homo sapiens, nine Non-small cell lung cancer cell lines, exposure at least 48 h, read-out: GI50, range over the panel): 0.446 to 5.13 µM
mean graph midpoint value (MG_MID) of log10 TGI ([23]; Non-small cell lung panel, total inhibition of net cell growth): −4.54
LC50 ([24]; Homo sapiens, Prostate panel, 50% net cell death, read-out: mean graph midpoint value (MG_MID) of Log10 LC50 (converted)): > 100 µM
GI50 ([24]; Homo sapiens, Prostate panel, read-out: mean graph midpoint value (MG_MID) of Log10 GI50 (converted)): 4.68 µM
GI50 ([24]; Homo sapiens, two prostate cancer cell lines (PC-3, DU-145), exposure at least 48 h, read-out: GI50, range over the panel): 3.02 to 7.25 µM
mean graph midpoint value (MG_MID) of log10 TGI ([24]; Prostate panel, total inhibition of net cell growth): −4.15
